These results are taken from US20030229228A1 (priority 2000, published 2003).

SMILES strings stand for the structures.

As for `CCS(=O)(=O)N[C@H](C(=O)NCCc1cc(Br)c(O)c(OC)c1)C(C)C`, the melting point is 145 to 147 °C.
Take `CCS(=O)(=O)N[C@H](C(=O)NCCc1cc(Br)c(OCC#Cc2ccc(Cl)cc2)c(OC)c1)C(C)C`: the melting point is 109 to 111 °C.

One may read the melting point as the temperature, or range, at which the solid turns liquid.
